Drawing on ChEMBL document CHEMBL1201862, “PubChem BioAssay data set” (2004), this text covers EC50 and AC50 for 2 compounds.

Structures are written as SMILES. Active and inactive are the calls of the source. A value given as a limit tells only on which side of the number the result lay.

Assay [1] addresses T1, Sphingosine 1-phosphate receptor 4 (Homo sapiens, UniProt O95977).
T1 sequence (O95977 whole entry): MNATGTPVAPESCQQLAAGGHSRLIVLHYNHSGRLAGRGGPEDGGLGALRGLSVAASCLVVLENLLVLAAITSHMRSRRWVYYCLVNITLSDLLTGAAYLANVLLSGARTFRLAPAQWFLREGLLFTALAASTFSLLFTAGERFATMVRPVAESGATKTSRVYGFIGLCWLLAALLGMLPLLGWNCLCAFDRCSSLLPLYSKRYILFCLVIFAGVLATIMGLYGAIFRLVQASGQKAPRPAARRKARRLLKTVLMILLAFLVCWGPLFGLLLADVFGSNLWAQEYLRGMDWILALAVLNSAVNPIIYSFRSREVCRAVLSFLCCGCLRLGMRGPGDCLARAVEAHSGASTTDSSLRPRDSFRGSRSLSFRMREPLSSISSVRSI
Description: Late-stage fluorescence-based dose-response cell-based counterscreen assay to identify agonists of the Sphingosine 1-Phosphate Receptor 3 (S1P3): Sphingosine 1-Phosphate Receptor 4 (S1P4) agonist assay. The assay is classed as functional.

Assay [2] concerns the target Sphingosine 1-phosphate receptor 2 (Homo sapiens, UniProt O95136). Description: Late-stage fluorescence-based dose-response cell-based counterscreen assay to identify agonists of the Sphingosine 1-Phosphate Receptor 3 (S1P3): Sphingosine 1-Phosphate Receptor 2 (S1P2) agonist assay. The assay is classed as functional.
Assay [3] in a line: A cytotoxicity screen of small molecule inhibitors of the PhoP region in Salmonella typhi identified in the primary screen. [Related pubchem assays: 1850, 1864, 1985 ]. Type of assay: functional.
The test system of a further assay is HEK293. In words: inhibitors of LMP1-driven NF-kB reporter, dose response, cell-based, HEK293, luciferase, cherry-pick (AID 588343). Conditions: Homo sapiens. The assay is classed as functional.
In assay [4] the target is Latent membrane protein 1 (Human herpesvirus 4 (strain B95-8), UniProt P03230). In words: TES1-eGFP NF-kB reporter inhibition versus Tet-On dsRED, dose response, selectivity assay for LMP1 NF-kB inhibitor project, imaging, HEK293T, dual-color eGFP/dsRED, cherry-picks (AID 588398). Type of assay: functional, cell-based.
Latent membrane protein 1, sequence (P03230 whole entry): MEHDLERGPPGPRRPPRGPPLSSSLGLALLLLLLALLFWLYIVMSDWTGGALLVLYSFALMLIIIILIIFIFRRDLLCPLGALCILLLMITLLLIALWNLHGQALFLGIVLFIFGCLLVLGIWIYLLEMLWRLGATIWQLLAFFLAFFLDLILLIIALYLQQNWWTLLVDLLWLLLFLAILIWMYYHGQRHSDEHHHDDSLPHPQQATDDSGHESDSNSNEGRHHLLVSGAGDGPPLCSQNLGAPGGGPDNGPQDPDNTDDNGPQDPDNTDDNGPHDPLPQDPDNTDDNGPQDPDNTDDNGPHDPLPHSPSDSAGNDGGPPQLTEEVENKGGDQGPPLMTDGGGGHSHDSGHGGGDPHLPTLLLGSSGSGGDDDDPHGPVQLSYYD
For assay [5], the target named is T2, Microphthalmia-associated transcription factor (Homo sapiens, UniProt O75030).
T2 sequence (O75030 whole entry): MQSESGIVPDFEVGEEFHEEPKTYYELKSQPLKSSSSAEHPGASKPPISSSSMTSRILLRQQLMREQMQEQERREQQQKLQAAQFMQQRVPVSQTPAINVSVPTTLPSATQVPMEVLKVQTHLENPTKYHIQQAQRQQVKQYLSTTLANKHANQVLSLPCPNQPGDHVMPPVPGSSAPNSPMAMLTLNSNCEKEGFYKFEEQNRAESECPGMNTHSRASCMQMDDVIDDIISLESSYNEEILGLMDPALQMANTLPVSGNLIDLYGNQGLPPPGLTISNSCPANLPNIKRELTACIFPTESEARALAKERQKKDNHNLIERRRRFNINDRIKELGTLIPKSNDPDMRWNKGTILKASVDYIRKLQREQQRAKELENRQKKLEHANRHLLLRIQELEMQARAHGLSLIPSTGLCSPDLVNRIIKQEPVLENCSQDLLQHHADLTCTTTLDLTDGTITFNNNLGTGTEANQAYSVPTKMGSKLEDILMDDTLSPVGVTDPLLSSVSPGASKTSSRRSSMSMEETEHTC
In words: TRPM1 promoter luciferase signal decrease, dose response, MITF inhibitor project, cell-based, SK-MEL-5, cherry-picked, set 3 (AID 493073).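 Note: SK-MEL-5 melanoma cells with luciferase driven by the MITF target TRPM1 promoter.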 Type of assay: functional.

Sphingosine 1-phosphate receptor 2, sequence (O95136 whole entry): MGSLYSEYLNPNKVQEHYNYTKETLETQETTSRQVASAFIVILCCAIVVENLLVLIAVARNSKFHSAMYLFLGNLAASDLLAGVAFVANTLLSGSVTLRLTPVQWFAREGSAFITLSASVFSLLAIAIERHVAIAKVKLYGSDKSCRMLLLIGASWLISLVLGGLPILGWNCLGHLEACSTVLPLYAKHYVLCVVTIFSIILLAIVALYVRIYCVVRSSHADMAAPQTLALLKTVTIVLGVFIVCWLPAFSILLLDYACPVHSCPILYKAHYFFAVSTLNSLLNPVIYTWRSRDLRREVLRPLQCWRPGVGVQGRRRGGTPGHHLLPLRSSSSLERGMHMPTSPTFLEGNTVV

On to `O=C(NC1CCCCC1)c1cc(C2CC2)on1`, for which the EC50 in assay [1] and in assay [2] was > 50 µM (inactive) each time.

`Cc1cc(NCCCn2ccnc2)n2ncc(-c3ccccc3)c2n1`: in assay [3], the concentration giving a half-maximal response (EC50) is > 50 µM (active). Further, the AC50 in the assay with HEK293 was 2.56 µM (active); in assay [4], 206 µM (active); in assay [5], 11 µM (active).
